In PMC6921407, “Novel coumarins active against Trypanosoma cruzi and toxicity assessment using the animal model Caenorhabditis elegans” (BMC Pharmacology & Toxicology, 2019):
Values joined by “and” are separate entries in the source; they are usually repeats but may differ in a detail not shown here. Equal entries are not always repeated. Where two headings read alike, the source gives them in different places.

Assays:
C. elegans = system: C. elegans; parameters: method as in PMID 23727123; settings: for the worm; cited from earlier work
[1] = system: Caenorhabditis elegans N2 (wild type); settings: L1 worms exposed 30 min, survival counted 24 hours after exposure
Protocol: The nematode strain used was N2 (wild type), originally obtained from the Caenorhabditis Genetics Center (University of Minnesota, Twin Cities, MN, USA), which was maintained on nematode growth medium (NGM) plates seeded with Escherichia coli OP50 at 20°C. Synchronization of C. elegans cultures at the first larval stage (L1) was achieved by washing off the gravid nematodes from the plates into the centrifuge tubes, which were lysed with a bleaching mixture (1% NaOCl; 0.25 M NaOH), followed by flotation on a sucrose solution 30% (m/v) to separate the eggs from the dissolved worms and bacterial debris. The eggs were washed with M9 buffer (0.02 M KH2PO4, 0.04 M Na2HPO4, 0.08 M NaCl, and 0.001 M MgSO4) and allowed to hatch overnight (16 hours) in NGM agar plates without bacteria. After 16 hours it was obtained worms at L1 stage. Then, 1.500 L1 worms were exposed for 30 minutes at 20°C, by constant agitation in a rotator, at crescent doses ranging from 25 to 100 mM of coumarins in a 0.5% NaCl liquid media. Stock solutions of coumarins were made in DMSO, therefore worms treated with 0.5% NaCl and 0.5% DMSO were used as controls. After exposure, worms were washed 3 times with 0.5% NaCl to remove the treatments. Finally, worms were transferred to NGM recovery plates inoculated with Escherichia coli (OP50) for posterior assays.
The LD50 of coumarins was determined in C. elegans after exposure. The worms were washed three times with NaCl buffer and placed on OP50-seeded NGM plates. The number of surviving worms on each plate was verified 24 hours after exposure. The lethality data was normalized with the controls and presented as a percentage. All the coumarins were tested in three independent experiments with each concentration tested in two replicates within each experiment.

[2] = system: Trypanosoma cruzi epimastigotes (Tulahuen 2 strain); assay: Anti-Trypanosoma cruzi activity: growth inhibition of epimastigotes (absorbance at 600 nm, day 5); assay type: cell-based; settings: T. cruzi epimastigotes; for IC50: read-out: IC50
Protocol: Trypanosoma cruzi epimastigotes (Tulahuen 2 strain) were grown at 28 °C in an axenic milieu (BHI-Tryptose) supplemented with 5% fetal bovine serum (FBS), as previously described. Cells from a 10-day-old culture (stationary phase) were inoculated into 50 mL of fresh culture milieu to give an initial concentration of 1 × 10^6 cells per mL. Cell growth was followed by measuring the absorbance of the culture at 600 nm every day. Before inoculation, the milieu was supplemented with a given amount of the coumarin from a freshly prepared stock solution in DMSO (25 mM). The final concentration of DMSO in the culture medium never exceeded 0.4%, and the control was run in the presence of 0.4% DMSO and in the absence of drugs. […] Nifurtimox (Nfx) was used as the reference trypanocidal drug. The percentage of growth inhibition (PGI) was calculated as follows: PGI (%) = {1 - [(Ap - A0p) / (Ac - A0c)]} × 100, where Ap = […] of the culture containing the studied compound at day 5; […] = […] of the culture containing the studied compound just after addition of the inocula (day 0); Ac = […] of the culture in the absence of the studied compound (control) at day 5; […] = […] in the absence of the studied compound at day 0. […] At day 5, the absorbance of the culture was measured and related to the control.

[3] = system: Caenorhabditis elegans N2 (wild type); assay: Body area (worm development) of C. elegans after acute exposure; assay type: in vivo; settings: 30 min exposure, measured 48 hours after exposure; tested 25 to 100 mM; ANOVA/Bonferroni
Protocol: For the evaluation of body area, 48 hours after exposure the adult worms (20 nematodes per treatment) were photographed and their body contour was measured. For this, the NGM plates were washed with distilled water and the resulting solution was transferred to a centrifuge tube, where the worm was allowed to settle, separating it from the bacteria in suspension. The process was repeated until the solution became clear. […] The pictures were acquired from 20 worms per treatment, which were manually contoured and measured with AxioVision software LE version 4.8.2.0 for Windows.

Trypanosoma cruzi = system: Trypanosoma cruzi; parameters: method as in PMID 24340110; settings: cited from earlier work
[4] = system: Trypanosoma cruzi epimastigotes (Tulahuen 2 strain); parameters: method as in PMID 19811923; settings: in vitro, epimastigote form of T. cruzi; cited from earlier work
T. cruzi = system: T. cruzi; parameters: method as in doi:10.1351/pac200173030617; settings: proposed mechanism glyceraldehyde 3-phosphate dehydrogenase inhibition; cited from earlier work
[5] = Trypanosoma cruzi, TULAHUEN, 120 h

| Compound | LD50 (DL50) [1] | IC50 [2] | IC50 [2, 5] | other results |
| --- | --- | --- | --- | --- |
| CCCSc1ccc2nc(NC(=O)OC)[nH]c2c1 [albendazole] | – | – | – | EC50 (C. elegans): 18.4 µM |
| CCc1ccc2oc(=O)cc(CN(C)c3ccccc3)c2c1 [11g] | 61.7 mM and 61.50 mM | < 10 µM | 8.2 ± 2.3 µM | LD50 (DL50) ([1]; listed as LaSOM 231): 61.55 mM; GI (%) / percentage of growth inhibition (PGI) ([2]; test concentration not given): < 78.6% |
| CCc1ccc2oc(=O)cc(CN(C)c3ccc(Cl)cc3)c2c1 [11h] | 73.4 mM and 70.81 mM | < 10 µM | 6.4 ± 1 µM | concentrations with significant reduction of body area compared with the control [3]: 50000 µM |
| Soulamarin | – | – | – | IC50 (Trypanosoma cruzi): 210 µM |
| Cc1ccc2oc(=O)cc(CN(C)c3ccccc3)c2c1 [10g] | 42.3 mM | 8.9 µM | < 10 µM | – |
| O=C(Cn1ccnc1[N+](=O)[O-])NCc1ccccc1 [Benznidazole] | – | – | – | IC50 compared with Nifurtimox [4]: very similar IC50 values |
| C=CC(C)(C)c1cc2cc3c(cc2oc1=O)O[C@H](C(C)(C)O)C3 [Chalepin] | – | – | – | IC50 (T. cruzi): 64 µM |
